Source: patent US6770740B1, “Crosslinked DNA condesate compositions and gene delivery methods” (The Regents of the University of Michigan, priority 1999, dated 2004)
Where a SMILES comes first, the peptide text is derived from it. Where no end group is shown, it is not given here. Side-chain parts run from the residue outwards. vinylsulfone = vinylsulfone linkage of the PEG to the cysteine sulfhydryl (non-reducible, from PEG-vinylsulfone)

Legend:
[1] = Serum stability of DNA condensates in DNase I augmented mouse serum; assay type: in vitro ADME; details: 50% serum containing 0.12 units of DNase I, 37° C.
Procedure: DNA condensates (100 μL) were combined with 100 μL of DNase I augmented mouse serum (0.12 U of DNase I per 100 μl serum) and 3 μL of 5 M sodium chloride to bring the final salt concentration to 150 mM. Samples were incubated at 37° C. for 3 h while rapidly freezing 20 μL aliquots at time points ranging from 0 to 180 min. Serum samples were processed by adding 3 μL (0.31 U) of proteinase K and then incubated at 37° C. for 30 min to remove endonuclease activity. Sodium chloride was then added (4.6 μL of 5 M) along with trypsin (3 μL containing 7 U) and allowed to digest for 12 h at 37° C. to remove the crosslinked peptide. Samples were applied to a 1% agarose gel containing 0.05% SDS and electrophoresed as described above.

HepG2 cells [2] = assay: In vitro luciferase gene expression, Example 1; assay type: cell-based; details: HepG2, 24 h post-transfection, 10 μg DNA, 80 μM chloroquine
Procedure: HepG2 cells were plated at 1.5×10^5 cells per 35 mm well and grown to 40-70% confluence in MEM supplemented with 10% fetal calf serum (FCS). Peptide DNA condensates (10 μg of DNA) were added dropwise to triplicate sets of cells in 2% FCS containing 80 μM chloroquine. After 5 h incubation at 37° C., the media was replaced with MEM supplemented with 10% FCS, and luciferase expression was determined at 24 h. Cells were washed twice with ice-cold phosphate buffered saline (calcium and magnesium free) and then treated with 0.5 ml of ice-cold lysis buffer (25 mM Tris hydrochloride pH 7.8, 1 mM EDTA, 8 mM magnesium chloride, 1% Triton X-100, 1 mM DTT) for 10 min. The cell lysate was scraped, transferred to 1.5 ml micro centrifuge tubes, and centrifuged for 7 min at 13,000 g at 4° C. to pellet debris.
Lysis buffer (300 μl), sodium-ATP (4 μl of a 180 mM solution, pH 7, 4° C.) and cell lysate (100 μl, 4° C.) were combined in a test tube, briefly mixed and immediately placed in the luminometer. Luciferase relative light units (RLU) were recorded on a Lumat™ LB 9501 (Berthold Systems, Germany) with 10 sec integration after automatic injection of 100 μl of 0.5 mM D-luciferin (prepared fresh in lysis buffer without DTT). […]

HepG2 cells [3] = assay: Cell binding of 125I-DNA condensates, Example 1; assay type: cell-based; details: 5 h transfection, 10 μg 125I-DNA condensates
Procedure: Iodinated plasmid DNA was prepared with specific activity of 300 nCi per μg of DNA as described previously (Teribesi et al., 1998). Prior to forming DNA condensates, the specific activity of the ^125I DNA was adjusted to 4.5 nCi per μg of DNA by combining with unlabeled plasmid. DNA condensates were prepared using AlkCWK18, PEG-SS-CWK18 or PEG-VS-CWK18 as described above. Peptide ^125I-DNA condensates (10 μg) were used to transfer HepG2 cells for 5 h according to the procedure described above. The radioactive media was removed, cells were washed with phosphate buffered saline, harvested with lysis buffer, and the cell-associated radioactivity was quantified by gamma counting.

[4] = QELS particle size and zeta potential of PEG-peptide DNA condensates and co-condensates, Example 1; assay type: physicochemical
Procedure: The particle size of peptide DNA condensates were analyzed at a DNA concentration of 50 μg/ml in Hepes by quasielastic light scattering (QELS). The particle surface change was determined by zeta potential analysis using a Brookhaven ZetaPlus™ (Brookhaven Instruments).
DNA co-condensates were prepared by add-mixing AlkCWK18 and PEG-VS-CWK18 in ratios ranging from 0 to 100 mol %, and condensing DNA at a charge ratio of 2.3:1 as described above. To establish the mol ratio of peptides bound to DNA, condensates were dialyzed in a fixed volume (0.5 ml) dialyzer for 75 h against water using a 100,000 MWCO membrane. Peptide DNA condensates in the retentate (0.5 ml) were dissociated by adding 50 μl of 5 M sodium chloride in 0.1% TFA. AlkCWK18 and PEG-VS-CWK18 were quantified by injecting 1 nmol of peptide (100 μl) onto analytical RP-HPLC eluted with 0.1% TFA and a gradient of acetonitrile (5 to 65% over 30 min) while detecting tryptophan by fluorescence (λex 280 nm, λem 350 nm). The peak integration areas were used to quantify AlkCWK18 and PEG-VS-CWK18 with reference to standard curves developed for each peptide.

[5] = Solubility of peptide DNA condensates: particle size as a function of DNA concentration; assay type: physicochemical; details: throughout DNA concentrations 0.05-2 mg/ml
[6] = Particle size and zeta potential of peptide DNA condensates after freeze-drying and rehydration, Example 2; assay type: physicochemical; details: no sucrose
Procedure: The concentration of AlkCWK18 and PEG-CWK18 were determined by UV absorbance (Trp, ε280 nm=5,600 M^−1 cm^−1). Peptide DNA condensates were prepared in 5 mM Hepes pH 5 at a peptide/DNA stoichiometry of 0.3 nmol of peptide/μg of DNA. The condensates were formed by adding 450 μL of 100 μg/mL NT-βGal drop wise to 450 μL of 30 nmol/mL AlKCWK18 or PEG-CWK18 while vortexing. Each sample was prepared in triplicate, and after a 30 min equilibration, 20-100 μL of 50 wt/vol % solutions of either glucose, mannitol, galactose, dextran or sucrose were added followed by normalization to 1 mL to give a final sugar concentration of 1-5 wt/vol % and DNA concentration of 50 μg/mL.
The mean particle size of 50 μg/mL AlkCWK18 DNA condensates were determined by quasielastic light scattering (QELS) on a Brookhaven ZetaPlus™. Samples (1 mL) were frozen rapidly in dry ice ethanol in a 1.5 mL microcentrifuge tube and then lyophilized on a Labconco™ freeze dryer for 24 h operated at a constant vacuum of 55×10^−6 mBar while maintained at room temperature (22° C.). The maximal vacuum was achieved within 2 min after applying the sample.
At the highest sucrose concentration of 5 wt/vol %, samples remained frozen throughout freeze-drying but dried to form a glassy solid after 24 h. […] Freeze-dried samples prepared in triplicate were reconstituted in 1 mL of deionized water, allowed to equilibrate for 30 min and then analyzed by QELS as described above. Large peptide DNA condensates were measured by light microscopy with magnification of 100X. The particle size of PEG-peptide DNA condensates were also measured by transmission electron microscopy (TEM) according to a published procedure (Wadhwa et al., 1997).
The relationship between pH and rehydrated peptide DNA condensate particle size was examined in 5 mM Hepes at a pH range of 3-7. The particle size of 50 μg/mL DNA condensates in 5 wt/vol % sucrose was determined by QELS before and after freeze-drying as described above.
The rehydrated particle size of AlkCWK18 or PEG-CWK18 DNA condensates were also examined at a concentration of 0.05-5 mg/mL in 5 mM Hepes pH 5 with (AlkCWK18 DNA) or without (PEG-CWK18 DNA) the addition of 5 wt/vol % sucrose. DNA condensates were freeze-dried and reconstituted to the original concentration. QELS particle size analysis before and after freeze-drying required dilution of an aliquot of the sample to concentration of 50 μg/mL. Freeze-dried 5 mg/mL PEG-CWK18 DNA condensates were also reconstituted in 0.9 wt/vol % sodium chloride and analyzed for particle size.

plasmid DNA = assay: Fluorescent dye (thiazole orange) displacement assay of peptide binding to DNA, Example 1; details: corresponding to a charge ratio of 1.8:1
Procedure: Peptide DNA condensates were formed by adding 75 μg of DNA (pCMVL in 750 μl of 5 mM Hepes pH 7.4) to varying amounts of peptide (7.5 to 90 nmol in 750 μl of Hepes) while vortexing, followed by equilibration at RT for 1 h. Peptide binding to DNA was monitored by a fluorescent dye displacement assay (Wadhwa et al. 1997). A 1 μg aliquot of the peptide DNA condensate was diluted to 1 ml in Hepes containing 0.1 μM thiazole orange. The fluorescence of the intercalated dye was measured on an LS50B fluorimeter (Perkin Elmer, UK) in a microcuvette by exciting at 500 nm while monitoring emission at 530 nm.

HepG2 cells [7] = assay: Cytotoxicity in cell culture: total protein of cell homogenates 24 h after transfection; assay type: cell-based; details: 1-4 mol equivalents of glutaraldehyde corresponding to 1.5-6 μM
Procedure: HepG2 cells (3×10^5) were plated on 6×35 mm wells and grown for 48 h to 40% confluence in MEM supplemented with 10% fetal calf serum (FCS). Crosslinked DNA condensates (10 μg of DNA in 200 μL) were transfected in triplicate by drop wise addition to cells in 2% FCS either with or without 80 μM chloroquine followed by 5 h incubation, after which the media was replaced with 2 mL of MEM containing 10% fetal calf serum and allowed to incubate for an additional 19 h. Wells were sampled for 10 days at 24 h intervals by removing and freezing (−20° C.) the media and replacing it with 2 mL of fresh 10% FCS MEM.
The cytotoxity of both free glutaraldehyde and crosslinked DNA condensates were examined in cell culture. The total protein of cell homogenates harvested 24 h after transfecting cells in the presence of free glutaraldehyde or crosslinked DNA condensates were indistinguishable from control, indicated no toxicity when using 1-4 mol equivalents of glutaraldehyde corresponding to 1.5-6 μM.

NCCCC[C@H](NC(=O)[C@H](CCCCN)NC(=O)[C@H](CCCCN)NC(=O)[C@H](CCCCN)NC(=O)[C@H](CCCCN)NC(=O)[C@H](CCCCN)NC(=O)[C@H](CCCCN)NC(=O)[C@H](CCCCN)NC(=O)[C@H](CCCCN)NC(=O)[C@H](CCCCN)NC(=O)[C@H](CCCCN)NC(=O)[C@H](CCCCN)NC(=O)[C@H](CCCCN)NC(=O)[C@H](CCCCN)NC(=O)[C@H](CCCCN)NC(=O)[C@H](CCCCN)NC(=O)[C@H](CCCCN)NC(=O)[C@H](CCCCN)NC(=O)[C@H](Cc1c[nH]c2ccccc12)NC(=O)[C@@H](N)CS)C(=O)O [CWK18, Cys-Trp-Lys18] (H-CWKKKKKKKKKKKKKKKKKK-OH; N-terminus and C-terminus assumed)
time of stability of DNA before metabolism into oligonucleotides [1]: 60 min

PEG-VS-CWK18: non-reducible PEG-peptide from PEG-vinylsulfone (5 kDa) and the sulfhydryl of CWK18 (C([vinylsulfone-PEG 5 kDa])WKKKKKKKKKKKKKKKKKK)
reduction of spontaneous gene transfer (luciferase expression) relative to AlkCWK18 DNA condensates (HepG2 cells [2]): 1000 fold
cell associated 125I-DNA, percent of dose (HepG2 cells [3]): 0.2%
zeta potential of DNA condensates ([4]; charge ratio 1.8:1): +10 mV
mean diameter of DNA condensates ([4]; charge ratio of 1.8:1 or higher, 50 μg/ml DNA in Hepes): 90 nm
mean diameter of DNA condensates [5]: < 100 nm
particle diameter of freeze-dried and rehydrated DNA condensates by TEM ([6]; 5 mg/mL DNA): less than 100 nm
DNA concentration up to which particle size was retained on rehydration ([6]; rehydrated in water or normal saline): 5 mg/mL
peptide:DNA stoichiometry at the asymptote of the dye displacement titration curve (relative DNA binding affinity) (plasmid DNA): 0.3 nmol per μg of DNA

O=CCCCC=O [glutaraldehyde]
cytotoxicity (HepG2 cells [7]): no toxicity
